Assay results: patent US7402548B2, “Benzoxazole compounds, process for producing the same and herbicides” (Kyoyu Agri Co., Ltd., priority 2000, dated 2008)

What was measured:
livid amaranth [1] = test: Foliar spread test for upland field; type: in vivo, Amaranthus lividus; set-up: key: 0 = normal development, 5 = all killed (6 ranks vs. untreated); conditions: foliar spray, 500 ppm, 3 weeks, glass house 25° C.
In short: (§1)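 Seeds were sown in volcanic ash soil in Wagner pots and grown about 2 weeks in a glass house at an average 25° C. Wettable-powder formulations diluted to 500 ppm in water with 0.5% surfactant were sprayed uniformly over the plants. After 3 further weeks at 25° C, damage was scored 0 (normal) to 5 (all killed) against untreated plants.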

morning glory [2] = test: Soil treatment test for upland field; type: in vivo, Ipomoea spps.; set-up: key: 0 = normal development, 5 = all killed; conditions: 500 g/ha, 3 weeks, glass house 25° C.
In short: (§2)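 Using a pre-emergence soil application at 500 g/ha, treated pots were held 3 weeks in a glass house averaging 25° C. Injury was graded on a 0–5 scale against non-treated pots; "-" marks entries not investigated.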

solgum [3] = test: Soil treatment test for upland field; type: in vivo; set-up: key: 0 = normal development, 5 = all killed; conditions: 500 g/ha, 3 weeks, glass house 25° C.
In short: as §2

corn [4] = test: Soil treatment test for upland field; type: in vivo; set-up: key: 0 = normal development, 5 = all killed; conditions: 500 g/ha, 3 weeks, glass house 25° C.
In short: as §2

wheat [5] = test: Soil treatment test for upland field; type: in vivo; set-up: key: 0 = normal development, 5 = all killed; conditions: 500 g/ha, 3 weeks, glass house 25° C.
In short: as §2

sugar beat [6] = test: Soil treatment test for upland field; type: in vivo; set-up: key: 0 = normal development, 5 = all killed; conditions: 500 g/ha, 3 weeks, glass house 25° C.
In short: as §2

velvetleaf [7] = test: Foliar spread test for upland field; type: in vivo, Abutilon theophrasti; set-up: key: 0 = normal development, 5 = all killed (6 ranks vs. untreated); conditions: foliar spray, 500 ppm, 3 weeks, glass house 25° C.
In short: as §1

annual bluegrass [8] = test: Foliar spread test for upland field; type: in vivo, Poa annua; set-up: key: 0 = normal development, 5 = all killed (6 ranks vs. untreated); conditions: foliar spray, 500 ppm, 3 weeks, glass house 25° C.
In short: as §1

green foxtail [9] = test: Soil treatment test for upland field; type: in vivo, Setaria viridis; set-up: key: 0 = normal development, 5 = all killed; conditions: 500 g/ha, 3 weeks, glass house 25° C.
In short: as §2

common lambsquarters [10] = test: Soil treatment test for upland field; type: in vivo, Chenopodium album; set-up: key: 0 = normal development, 5 = all killed; conditions: 500 g/ha, 3 weeks, glass house 25° C.
In short: as §2

velvetleaf [11] = test: Soil treatment test for upland field; type: in vivo, Abutilon theophrasti; set-up: key: 0 = normal development, 5 = all killed; conditions: 500 g/ha, 3 weeks, glass house 25° C.
In short: as §2

green foxtail [12] = test: Foliar spread test for upland field; type: in vivo, Setaria viridis; set-up: key: 0 = normal development, 5 = all killed (6 ranks vs. untreated); conditions: foliar spray, 500 ppm, 3 weeks, glass house 25° C.
In short: as §1

blackgrass [13] = test: Soil treatment test for upland field; type: in vivo, Alopecurus aegualis; set-up: key: 0 = normal development, 5 = all killed; conditions: 500 g/ha, 3 weeks, glass house 25° C.
In short: as §2

[14] = tested on: sicklepod (Cassia obtusifolia); test: Soil treatment test for upland field; type: in vivo; conditions: 500 g/ha, 3 weeks, glass house 25° C.
Protocol: (§3) The herbicidal effects are evaluated according to the following 6 ranks as compared with non-treated district. (0: normal development, 1: Less damaged, 2: Slightly damaged, 3: Moderately damaged, 4: Severely damaged, 5: All killed). Incidentally, “-” in the column means not investigated.
(§4) Wagner pots, each having an area of 1/5000 are, were packed with Ube soil (alluvial soil), and then each seed of corn, soybean, cotton, wheat, solgum, sugar beat, Large crabgrass, barnyard grass, green foxtail, blackgrass, annual bluegrass, common lambsquarters, livid amaranth, velvetleaf, morning glory, common Cocklebur (Xanthium strumarium) and sicklepod (Cassia obtusifolia) were planted and covered with soil.
(§5) Each wettable powder of the desired compounds (I) shown in Tables 1 to 21, 24, 25, 28 and 29 prepared in accordance with Example 2 was diluted with water containing a surfactant (0.05%) and uniformly sprayed on the surface of each soil so that an effective concentration of the compound (I) in each herbicide became 500 g/ha.
(§6) These plants were controlled in a glass house at an average temperature of 25° C. for 3 weeks, and then herbicidal effects thereof were investigated.
(§7) The herbicidal effects were evaluated according to the evaluation method described in the above (1).

[15] = tested on: common Cocklebur (Xanthium strumarium); test: Soil treatment test for upland field; type: in vivo; conditions: 500 g/ha, 3 weeks, glass house 25° C.
Protocol: as §3, §4, §5, §6, §7

Xanthium pensylvanicum = test: Foliar spread test for upland field; type: in vivo; set-up: key: 0 = normal development, 5 = all killed; conditions: foliar spray, 500 ppm, 3 weeks, glass house 25° C.
Protocol: as §3
(§8) Wagner pots, each having an area of 1/5000 are, were packed with volcanic ash soil and then each seed of corn, soybean, cotton, wheat, solgum, sugar beat, Large crabgrass, barnyardgrjass, green foxtail, blackgrass, annual bluegrass, common lambsquarters, livid amaranth, velvetleaf, morning glory, Xanthium pensylvanicum and Cassia obtusifolia was planted, covered with soil and grown in a glass house at an average temperature of 25° C. for about 2 weeks.
(§9) Each wettable powder of the desired compounds (I) shown in Tables 1 to 21, 24, 25, 28 and 29 prepared in accordance with Example 2 was diluted to 500 ppm with water containing a surfactant (0.5%) and then uniformly sprayed on the above respective plants.
(§10) After these plants were controlled in a glass house at an average temperature of 25° C. for 3 weeks, the herbicidal effects thereof were investigated.
as §7

Cassia obtusifolia = test: Foliar spread test for upland field; type: in vivo; set-up: key: 0 = normal development, 5 = all killed; conditions: foliar spray, 500 ppm, 3 weeks, glass house 25° C.
Protocol: as §3, §8, §9, §10, §7

common lambsquarters [16] = test: Foliar spread test for upland field; type: in vivo, Chenopodium album; set-up: key: 0 = normal development, 5 = all killed (6 ranks vs. untreated); conditions: foliar spray, 500 ppm, 3 weeks, glass house 25° C.
In short: as §1

annual bluegrass [17] = test: Soil treatment test for upland field; type: in vivo, Poa annua; set-up: key: 0 = normal development, 5 = all killed; conditions: 500 g/ha, 3 weeks, glass house 25° C.
In short: as §2

barnyard grass [18] = test: Soil treatment test for upland field; type: in vivo, Eschinochloa crusgalli; set-up: key: 0 = normal development, 5 = all killed; conditions: 500 g/ha, 3 weeks, glass house 25° C.
In short: as §2

arrowhead = test: Herbicidal test for paddy field; type: in vivo, Sagittaria pygmaea; conditions: 500 g/ha, dropwise addition to paddy water at 1.5 leaf stage of barnyard grass; glass house 25° C., 3 weeks; rank 0-5 vs non-treated district
Protocol: Wagner pots, each having an area of 1/5000 are, were packed with Ube soil (alluvial soil) and planted with seeds or tubers of young rice plant, barnyard grass, bulrush, Cyperus serotinus Rottb., arrowhead and monochoria. Then, the pots were filled with water to a depth of 3 cm.
Each wettable powder of the desired Compounds (I) shown in Tables 1 to 21, 24, 25, 28 and 29 prepared in accordance with Example 2 was diluted with water containing a surfactant (0.05%) and subjected to dropwise addition treatment by using pipet so that an effective concentration of the compound (I) in each herbicide became 500 g/ha at 1.5 leaf stage of barnyard grass.
as §6, §3

bulrush = test: Herbicidal test for paddy field; type: in vivo, Scrips juncoides; conditions: 500 g/ha, dropwise addition to paddy water at 1.5 leaf stage of barnyard grass; glass house 25° C., 3 weeks; rank 0-5 vs non-treated district
In short: (§11)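 Wettable-powder formulations in water with 0.05% surfactant were dripped onto flooded (3 cm) Ube alluvial-soil pots at 500 g/ha, applied at barnyard grass 1.5-leaf stage. Plants were kept in a glasshouse at 25° C. for 3 weeks. Damage was scored 0 (normal) to 5 (all killed) versus untreated plants.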

morning glory [19] = test: Foliar spread test for upland field; type: in vivo, Ipomoea spps.; set-up: key: 0 = normal development, 5 = all killed (6 ranks vs. untreated); conditions: foliar spray, 500 ppm, 3 weeks, glass house 25° C.
In short: as §1

Large crabgrass [20] = test: Soil treatment test for upland field; type: in vivo, Digitaria adscendens; set-up: key: 0 = normal development, 5 = all killed; conditions: 500 g/ha, 3 weeks, glass house 25° C.
In short: as §2

barnyard grass [21] = test: Herbicidal test for paddy field; type: in vivo, Eschinochloa crusgalli; conditions: 500 g/ha, dropwise addition to paddy water at 1.5 leaf stage of barnyard grass; glass house 25° C., 3 weeks; rank 0-5 vs non-treated district
In short: as §11

solgum [22] = test: Foliar spread test for upland field; type: in vivo; set-up: key: 0 = normal development, 5 = all killed (6 ranks vs. untreated); conditions: foliar spray, 500 ppm, 3 weeks, glass house 25° C.
In short: as §1

corn [23] = test: Foliar spread test for upland field; type: in vivo; set-up: key: 0 = normal development, 5 = all killed (6 ranks vs. untreated); conditions: foliar spray, 500 ppm, 3 weeks, glass house 25° C.
In short: as §1

wheat [24] = test: Foliar spread test for upland field; type: in vivo; set-up: key: 0 = normal development, 5 = all killed (6 ranks vs. untreated); conditions: foliar spray, 500 ppm, 3 weeks, glass house 25° C.
In short: as §1

soybean = test: Foliar spread test for upland field; type: in vivo; set-up: key: 0 = normal development, 5 = all killed (6 ranks vs. untreated); conditions: foliar spray, 500 ppm, 3 weeks, glass house 25° C.
In short: as §1

sugar beat [25] = test: Foliar spread test for upland field; type: in vivo; set-up: key: 0 = normal development, 5 = all killed (6 ranks vs. untreated); conditions: foliar spray, 500 ppm, 3 weeks, glass house 25° C.
In short: as §1

cotton = test: Foliar spread test for upland field; type: in vivo; set-up: key: 0 = normal development, 5 = all killed (6 ranks vs. untreated); conditions: foliar spray, 500 ppm, 3 weeks, glass house 25° C.
In short: as §1

livid amaranth [26] = test: Soil treatment test for upland field; type: in vivo, Amaranthus lividus; set-up: key: 0 = normal development, 5 = all killed; conditions: 500 g/ha, 3 weeks, glass house 25° C.
In short: as §2

barnyardgrjass = test: Foliar spread test for upland field; type: in vivo, Eschinochloa crusgalli; set-up: key: 0 = normal development, 5 = all killed (6 ranks vs. untreated); conditions: foliar spray, 500 ppm, 3 weeks, glass house 25° C.
In short: as §1

Large crabgrass [27] = test: Foliar spread test for upland field; type: in vivo, Digitaria adscendens; set-up: key: 0 = normal development, 5 = all killed (6 ranks vs. untreated); conditions: foliar spray, 500 ppm, 3 weeks, glass house 25° C.
In short: as §1

blackgrass [28] = test: Foliar spread test for upland field; type: in vivo, Alopecurus aegualis; set-up: key: 0 = normal development, 5 = all killed (6 ranks vs. untreated); conditions: foliar spray, 500 ppm, 3 weeks, glass house 25° C.
In short: as §1

Cyperus serotinus Rottb. = test: Herbicidal test for paddy field; type: in vivo; conditions: 500 g/ha, dropwise addition to paddy water at 1.5 leaf stage of barnyard grass; glass house 25° C., 3 weeks; rank 0-5 vs non-treated district
In short: as §11

| Compound | Effects Livid amaranth (livid amaranth [1]) | Effects Morning glory (morning glory [2]) | Effects Solgum (solgum [3]) | Effects Corn (corn [4]) | Effects Sugar beat (sugar beat [6]) | Effects Velvetleaf (velvetleaf [7]) | Effects Annual bluegrass (annual bluegrass [8]) | Effects Green foxtail (green foxtail [9]) | Effects Common lambsquarters (common lambsquarters [10]) | Effects Velvetleaf (velvetleaf [11]) | Effects Green foxtail (green foxtail [12]) | Effects Blackgrass (blackgrass [13]) | Effects Sicklepod [14] | Effects Common Cocklebur (Xanthium pensylvanicum) | Effects Sicklepod (Cassia obtusifolia) | Effects Common lambsquarters (common lambsquarters [16]) | Effects Annual bluegrass (annual bluegrass [17]) | Effects Barnyardgrass (barnyard grass [18]) | Effects Arrowhead (arrowhead) | Effects Bulrush (bulrush) | further results |
| --- | --- | --- | --- | --- | --- | --- | --- | --- | --- | --- | --- | --- | --- | --- | --- | --- | --- | --- | --- | --- | --- |
| Fc1ccc2oc(-c3cccc(Oc4cccc(C(F)(F)F)c4)n3)nc2c1 [I-a-2] | 5 | 5 | 1 | 2 | 5 | 4 | 4 | 5 | 5 | 5 | 5 | 5 | 3 | 4 | 4 | 5 | 5 | 4 | 1 | 3 | Effects Wheat (wheat [5]): 1; Effects Common Cocklebur [15]: 3; Effects Morning glory (morning glory [19]): 5; Effects Large crabgrass (Large crabgrass [20]): 5; Effects Barnyardgrass (barnyard grass [21]): 4; Effects Solgum (solgum [22]): 2; Effects Corn (corn [23]): 2; Effects Wheat (wheat [24]): 2; Effects Soybean (soybean): 3; Effects Sugar beat (sugar beat [25]): 4; Effects Sotton (cotton): 4; Effects Livid amaranth (livid amaranth [26]): 5; Effects Barnyardgrass (barnyardgrjass): 3; Effects Large crabgrass (Large crabgrass [27]): 4; Effects Blackgrass (blackgrass [28]): 3 |
| COc1ccc2oc(-c3cccc(Oc4cccc(C(F)(F)F)c4)n3)nc2c1 [I-a-4] | 5 | 1 | 0 | 0 | 0 | 3 | 1 | 1 | 0 | 1 | 1 | 0 | 0 | 3 | 4 | 5 | 0 | 3 | 0 | 0 | Effects Cyperus serotinus Rottb. (Cyperus serotinus Rottb.): 0; Effects Morning glory (morning glory [19]): 5; Effects Large crabgrass (Large crabgrass [20]): 0; Effects Barnyardgrass (barnyard grass [21]): 0; Effects Solgum (solgum [22]): 1; Effects Corn (corn [23]): 1; Effects Wheat (wheat [24]): 1; Effects Soybean (soybean): 2; Effects Sugar beat (sugar beat [25]): 4; Effects Sotton (cotton): 2; Effects Barnyardgrass (barnyardgrjass): 0; Effects Large crabgrass (Large crabgrass [27]): 1; Effects Blackgrass (blackgrass [28]): 0 |
